Experimental data: article PMC2935281 (Acta Crystallographica Section D: Biological Crystallography, 2010)

Key:
[1] = target: LS from M. tuberculosis (MtLS); details: read-out: Dissociation constant Kd; cited from earlier work
[2] = target: T1, B. anthracis lumazine synthase (BaLS) (Bacillus anthracis, UniProt Q81MB5); test: biochemical; details: for Mechanism: pH 7
[3] = target: T1, B. anthracis lumazine synthase (BaLS); test: biochemical; format: binding; details: for Binding enthalpy ΔH / Free energy of binding ΔG / No. of sites n / TΔS: pH 7
[4] = target: C. albicans LS (CaLS); details: read-out: Dissociation constant Kd; cited from earlier work

T1 sequence (Q81MB5 whole entry, looked up): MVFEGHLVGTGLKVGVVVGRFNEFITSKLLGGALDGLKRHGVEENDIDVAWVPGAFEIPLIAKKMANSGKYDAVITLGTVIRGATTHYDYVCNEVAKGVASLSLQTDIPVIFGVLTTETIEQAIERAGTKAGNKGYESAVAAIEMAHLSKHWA

| SMILES | Kd [1] [nM] | Ki [2] [nM] | Mechanism [2] | Ks ([2]; pH 7.0) [µM] | kcat ([2]; pH 7.0) [s⁻¹] | Kd [3] [nM] | Binding enthalpy ΔH [3] [kcal/mol] | Free energy of binding ΔG [3] [kcal/mol] | No. of sites n [3] | TΔS [3] [kcal/mol] | Kd [4] [nM] | increase of the Ki value in comparison to JC33 [2] | Kis ([2]; pH 7.0) [µM] | k′cat ([2]; pH 7.0) [min⁻¹] |
| --- | --- | --- | --- | --- | --- | --- | --- | --- | --- | --- | --- | --- | --- | --- |
| O=c1[nH]c(Cl)c(CCCCOP(=O)(O)O)c(=O)[nH]1 [JC33, 4-(6-Chloro-2,4-dioxo-1,2,3,4-tetrahydropyrimidine-5-yl)-n-butyl 1-phosphate] | 720 ± 20 | 23 | Competitive | 8.0 ± 0.5 | 0.01 ± 0.00017 | 1750 ± 40 | -7.50 ± 0.07 | -7.98 ± 0.02 | 0.98 ± 0.04 | 0.47 ± 0.07 | 150 ± 40 | – | – | – |
| O=c1[nH]c(Cl)c(CCCCCP(=O)(O)O)c(=O)[nH]1 [JC72, 5-(6-chloro-2,4-dioxo-1,2,3,4-tetrahydropyrimidine-5-yl)-n-pentyl 1-phosphonate] | – | 430 | Partial | 8.5 ± 0.5 | 0.01 ± 0.00017 | 3940 ± 10 | -5.29 ± 0.8 | -7.49 ± 0.01 | 0.98 ± 0.12 | 2.20 ± 0.79 | – | approximately 20 fold | 9.5 ± 3.5 | 0.28 ± 0.09 |
